Experimental data as given in patent publication US20260167622A1, “PAN-KRAS DEGRADING AGENT, AND PREPARATION METHOD THEREFOR AND USE THEREOF” (LEADINGTAC PHARMACEUTICAL (SHAOXING) CO., LTD., priority 2022, published 2026).

Legend:
Assay type in all cases: cell-based
[1] = system: KRAS G13D mutant human colorectal cancer epithelial cell DLD-1; test: 3D cell proliferation inhibition assay, DLD-1; conditions: DLD-1, 168 h, 3D culture, 7 days, CTG
How it was run: (§1)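 Cells were seeded in low-adsorption 96-well plates at 5×10^2 cells/well (MKN1 at 1×10^3) with compounds at final 10000-0.026 nM, 0.2% DMSO, and grown 7 days at 37° C. CTG luminescence gave inhibition relative to DMSO and medium-only controls, and IC50 came from a log-concentration curve fit.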

[2] = system: KRAS G12C mutant human non-small cell lung cancer cell NCI-H358; test: 3D cell proliferation inhibition assay, NCI-H358; conditions: NCI-H358, 168 h, 3D culture, 7 days, CTG
How it was run: as §1

[3] = target: T1, KRAS G12D protein in AsPc-1 cells (Homo sapiens, UniProt P01116, G12D); test: KRAS degradation assay (Western Blot) in AsPc-1 cells; conditions: for DC50: 24 h; for Dmax: ASPC1, 24 h
T1 construct: endogenous in cells; host or cells: AsPc-1
Text: (§2) Test Example 5: KRAS G12C, KRAS G12D, KRAS G12V, KRAS G13D, and KRAS WT (Expanded) Degradation Assays
(§3) The degradation effect of the compounds on KRAS was investigated on KRAS G12C mutant human non-small cell lung cancer cell NCI-H358, KRAS G12D mutant human metastatic pancreatic cancer cell AsPc-1, KRAS G12D mutant human lung cancer cell A427, KRAS G12V mutant human colorectal cancer cell SW620, KRAS G12V mutant human lung cancer cell SW900, KRAS G13D mutant human colorectal cancer epithelial cell DLD-1, and KRAS WT human gastric cancer cell MKN-1. The specific procedures were as follows: 0.95 mL of cells were seeded into each well of a 24-well cell culture plate to achieve a cell density of 5×10^5 cells/well; and the cell plate was incubated in an incubator at 37° C. with 5% CO2 overnight. Then 50 μL of the compound solution after dilution was added to each of the wells with the corresponding cells, so that the final concentration of the compound was in a range of 0.03-3000 nM. The final concentration of DMSO was 0.25%. After the compounds were added, the cell plate was incubated in an incubator at 37° C. with 5% CO2 for 24 h. The culture medium in the 24-well cell culture plate was then removed, and the plate was washed twice with 1×PBS (KeyGEN). 120 μL of RIPA (strong) lysis buffer (Beyotime) (supplemented with 1 mM phenylmethylsulfonyl fluoride, a protease inhibitor mixture (Beyotime), and a protease phosphatase inhibitor mixture (Beyotime)) was added to lyse adherent SW900 cells at the bottom of the cell culture plate. After the plate was left to stand on ice for 30 min, the protein lysate in each well was transferred to a 1.5 mL centrifuge tube and centrifuged at 15000 g for 20 min at 4° C. The cell lysate supernatants after centrifugation were cryopreserved in a refrigerator at −80° C. for later use.
(§4) After the samples of the cell lysate supernatants that had been prepared were thawed from the refrigerator at −80° C., the total protein concentrations of the cell lysates were determined using a BCA protein quantification kit (Tiangen). The total protein concentrations of the samples were then adjusted to 0.5 μg/μL with PBS and 5×SDS-PAGE protein loading buffer (Beyotime), and the samples were incubated in a water bath at 100° C. for 15 min. The samples were then incubated in an ice bath for 5 min and centrifuged at 14000 g for 1 min at 4° C., and the supernatants were mixed well as loading samples for the Western Blot assay. The samples were loaded into wells of a 10% precast gel (KeyGEN) with a loading volume of 10 μL (total protein: 5 μg), a sufficient Tris-MOPS-SDS running buffer (Adamas) was added, and then electrophoresis was performed at a constant voltage of 120 V for 55 min. After the electrophoresis, the proteins on the gel were transferred to PVDF membranes at a constant current of 250 mA for 55 min. After the membrane transfer, the PVDF membranes were incubated in 1× Quick Block blocking buffer (Beyotime)at room temperature for 30 min. After the blocking, the PVDF membranes were separately incubated at 4° C. overnight with the KRAS antibody (Abcam) diluted in a ratio of 1:1000 and the β-actin antibody (Abcam) diluted in a ratio of 1:2000 in 5% BSA as the diluent, and then washed with 1×TBST buffer (2.4 g of Tris, 8.8 g of NaCl, 1.5 mL of Tween 20, with pH adjusted to 7.4, with the volume brought to 1 L) 3 times for 10 min/time. The membranes were incubated with a secondary antibody (Abcam) diluted in 5% BSA at room temperature for 2 h, and then washed with 1×TBST buffer 3 times for 10 min/time. Finally, the membranes were incubated with Clarity Western ECL Substrate (BIO-RAD) for 5 min for luminescence and color development, and a ChemiScope 6200 Touch chemiluminescence imaging system (Clinx) was used for color development and protein mapping. Gray value analysis of the protein maps was performed using the chemiluminescence analysis software (Clinx). […]

[4] = system: KRAS G12V mutant human colorectal cancer cell SW620; test: 3D cell proliferation inhibition assay, SW620; conditions: SW-620, 168 h, 3D culture, 7 days, CTG
How it was run: as §1

[5] = target: T2, KRAS G12V protein in SW900 cells (Homo sapiens, UniProt P01116, G12V); test: KRAS degradation assay (Western Blot) in SW900 cells; conditions: 24 h
T2 construct: endogenous in cells; host or cells: SW900
How it was run: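 Compounds were added at final concentrations of 0.03–3000 nM (0.25% DMSO) to overnight-plated cells and left for 24 h. Lysates, equalised by BCA, were immunoblotted for KRAS and β-actin, and DC50 and Dmax were derived from normalised band intensities relative to control.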

[6] = target: T3, KRAS G13D protein in DLD-1 cells (Homo sapiens, UniProt P01116, G13D); test: KRAS degradation assay (Western Blot) in DLD-1 cells; conditions: 24 h
T3 construct: endogenous in cells; host or cells: DLD-1
Text: as §2, §3, §4

[7] = system: KRAS G12D mutant human gastric cancer cell AGS; test: 3D cell proliferation inhibition assay, AGS; conditions: 168 h, 3D culture, 7 days, CTG
How it was run: as §1

[8] = system: KRAS G12D mutant human lung cancer cell A427; test: 3D cell proliferation inhibition assay, A427; conditions: A-427, 168 h, 3D culture, 7 days, CTG
How it was run: as §1

[9] = system: KRAS WT human gastric cancer cell MKN1; test: 3D cell proliferation inhibition assay, MKN1; conditions: MKN-1, 168 h, 3D culture, 7 days, CTG
How it was run: as §1

[10] = system: KRAS G12D mutant human metastatic pancreatic cancer cell AsPc-1; test: 3D cell proliferation inhibition assay, AsPc-1; conditions: ASPC1, 168 h, 3D culture, 7 days, CTG
How it was run: as §1

[11] = system: KRAS G12V mutant human lung squamous carcinoma cell SW900; test: 3D cell proliferation inhibition assay, SW900; conditions: SW900, 168 h, 3D culture, 7 days, CTG
[12] = target: T4, KRAS G12V protein in SW620 cells (Homo sapiens, UniProt P01116, G12V); test: KRAS degradation assay (Western Blot) in SW620 cells
T4 construct: endogenous in cells; host or cells: SW620
How it was run: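 Western blot read-out: KRAS band gray value divided by β-actin, compared with DMSO control to give degradation rate. DC50 and Dmax came from log concentration–response fits after 24 h compound exposure (0.03–3000 nM final, 0.25% DMSO) at 37 °C, 5% CO2.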

T2 sequence (P01116 1-188 isoform P01116-2 G12V): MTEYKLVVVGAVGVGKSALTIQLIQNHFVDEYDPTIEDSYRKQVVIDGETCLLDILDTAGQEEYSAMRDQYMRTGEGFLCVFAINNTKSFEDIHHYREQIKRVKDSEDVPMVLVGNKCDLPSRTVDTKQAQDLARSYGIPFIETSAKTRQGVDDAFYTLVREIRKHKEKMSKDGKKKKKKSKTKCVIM
T1 sequence (P01116 1-188 isoform P01116-2 G12D): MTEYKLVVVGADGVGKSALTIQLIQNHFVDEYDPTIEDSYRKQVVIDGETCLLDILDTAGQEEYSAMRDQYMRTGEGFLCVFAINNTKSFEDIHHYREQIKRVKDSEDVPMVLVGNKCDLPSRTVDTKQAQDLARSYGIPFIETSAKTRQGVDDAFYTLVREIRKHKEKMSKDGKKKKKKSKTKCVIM
T4 sequence (P01116 1-188 isoform P01116-2 G12V): as the sequence (P01116 1-188 isoform P01116-2 G12V) above
T3 sequence (P01116 1-188 isoform P01116-2 G13D): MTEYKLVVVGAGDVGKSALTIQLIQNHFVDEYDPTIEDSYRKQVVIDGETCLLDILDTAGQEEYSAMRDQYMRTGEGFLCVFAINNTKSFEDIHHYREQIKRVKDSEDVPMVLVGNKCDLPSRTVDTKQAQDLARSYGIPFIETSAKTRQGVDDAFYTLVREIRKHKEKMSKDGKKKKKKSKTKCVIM

Row | IC50 [1] [nM] | IC50 [2] [nM] | DC50 [3] [nM] | Dmax [3] [%] | IC50 [4] [nM] | DC50 [5] [nM] | Dmax [5] [%] | DC50 [6] [nM] | Dmax [6] [%] | IC50 [7] [nM] | IC50 [8] [nM] | IC50 [9] [nM] | IC50 [10] [nM] | IC50 [11] [nM] | DC50 ([12]; 24 h) [nM] | Dmax ([12]; SW-620, 24 h) [%] | Structure (SMILES)
1 | 86.6 | 11.6 | ≤ 50 | 50 to 80 | 35.6 | ≤ 50 | 80 to 100 | – | – | – | – | – | – | – | – | – | C#Cc1cccc2cc(O)cc(-c3ncc4c(N5CCCOCC5)nc(OCC5(CN6CCN(CC7CCC8(CC7)CCN(C(=O)c7ccc(OC)c(N9CCC(=O)NC9=O)c7)CC8)CC6)CC5)nc4c3F)c12 [Example 39, 1-(5-(9-((4-((1-(((7-(8-ethynyl-3-hydroxynaphthalen-1-yl)-8-fluoro-4-(1,4-oxazepan-4-yl)pyrido[4,3-d]pyrimidin-2-yl)oxy)methyl)cyclopropyl)methyl)piperazin-1-yl)methyl)-3-azaspiro[5.5]undecane-3-carbonyl)-2-methoxyphenyl)dihydropyrimidine-2,4(1H,3H)-dione]
2 | ≤ 50 | ≤ 50 | – | – | 2.15 | ≤ 50 | 80 to 100 | ≤ 50 | 80 to 100 | ≤ 50 | 100 to 500 | ≤ 50 | ≤ 50 | ≤ 50 | – | – | CCc1c(F)ccc2cc(O)cc(-c3ncc4c(N5CCC[C@@](C)(O)C5)nc(OCC5(CN6CCN(CC7CCC8(CC7)CCN(C(=O)c7ccc(OC)c(N9CCC(=O)NC9=O)c7)CC8)CC6)CC5)nc4c3F)c12 [Example 42, (R)-1-(5-(9-((4-((1-(((7-(8-ethyl-7-fluoro-3-hydroxynaphthalen-1-yl)-8-fluoro-4-(3-hydroxy-3-methylpiperidin-1-yl)pyrido[4,3-d]pyrimidin-2-yl)oxy)methyl)cyclopropyl)methyl)piperazin-1-yl)methyl)-3-azaspiro[5.5]undecane-3-carbonyl)-2-methoxyphenyl)dihydropyrimidine-2,4(1H,3H)-dione]
3 | 46.1 | 67.4 | 822 | 57 | 27.4 | 62.9 | 75.3 | – | – | – | – | 39.2 | – | 527 | – | – | CCc1cccc2cc(O)cc(-c3ccc4c(N5CCC[C@@](C)(O)C5)nc(OCC5(CN6CCN(CC7CCC8(CC7)CCN(C(=O)c7ccc(C)c(N9CCC(=O)NC9=O)c7)CC8)CC6)CC5)nc4c3F)c12 [Example 49, (R)-1-(5-(9-((4-((1-(((7-(8-ethyl-3-hydroxynaphthalen-1-yl)-8-fluoro-4-(3-hydroxy-3-methylpiperidin-1-yl)quinazolin-2-yl)oxy)methyl)cyclopropyl)methyl)piperazin-1-yl)methyl)-3-azaspiro[5.5]undecane-3-carbonyl)-2-methylphenyl)dihydropyrimidine-2,4(1H,3H)-dione]
4 | – | 420 | 185 | 89 | 285 | 251 | 71 | – | – | 588 | 564 | 367 | 368 | 235 | – | – | C#Cc1c(F)ccc2cc(O)cc(-c3ncc4c(N5CCCC(C)(N)C5)nc(OCC5(CN6CCN(CC7CCC8(CC7)CCN(C(=O)c7ccc(OC)c(N9CCC(=O)NC9=O)c7)CC8)CC6)CC5)nc4c3F)c12 (centres unmarked) [Example 163, 1-(5-(9-((4-((1-(((4-(3-amino-3-methylpiperidin-1-yl)-7-(8-ethynyl-7-fluoro-3-hydroxynaphthalen-1-yl)-8-fluoropyrido[4,3-d]pyrimidin-2-yl)oxy)methyl)cyclopropyl)methyl)piperazin-1-yl)methyl)-3-azaspiro[5.5]undecane-3-carbonyl)-2-methoxyphenyl)dihydropyrimidine-2,4(1H,3H)-dione]
5 | 18.9 | 7.23 | 13.4 | 100 | 4.58 | 5.9 | 100 | – | – | 27.8 | 108 | 52.5 | 18.6 | 15.6 | 7.6 | 100 | C#Cc1c(F)ccc2cc(O)cc(-c3ncc4c(N5CCOCC(C)(O)C5)nc(OCC5(CN6CCN(CC7CCC8(CC7)CCN(C(=O)c7ccc(OC)c(N9CCC(=O)NC9=O)c7)CC8)CC6)CC5)nc4c3F)c12 (centres unmarked) [Example 165, 1-(5-(9-((4-((1-(((7-(8-ethynyl-7-fluoro-3-hydroxynaphthalen-1-yl)-8-fluoro-4-(6-hydroxy-6-methyl-1,4-oxazepan-4-yl)pyrido[4,3-d]pyrimidin-2-yl)oxy)methyl)cyclopropyl)methyl)piperazin-1-yl)methyl)-3-azaspiro[5.5]undecane-3-carbonyl)-2-methoxyphenyl)dihydropyrimidine-2,4(1H,3H)-dione]
